The test system of this test is L1210 leukemia ip in BDF1 mice, survival T/C. In words: NCI In Vivo Anticancer Drug Screen. Data for tumor model L1210 Leukemia (intraperitoneal) in B6D2F1 (BDF1) mice. Particulars: endpoint: mean survival time, higher = longer survival. In a few lines:
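Antitumor effect is assessed in tumor-bearing animals. Survival in the compound arm is compared with a vehicle-dosed control arm and expressed as their quotient.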

Where [1] appears, read: dose: 100.0 mg/kg/injection, schedule: Q01DX009 (ip), vehicle: saline with Tween-80.
Where [2] appears, read: dose: 200.0 mg/kg/injection, schedule: Q01DX009 (ip), vehicle: saline with Tween-80.
Setting [3] is: dose: 400.0 mg/kg/injection, schedule: Q01DX009 (ip), vehicle: saline with Tween-80.
Setting [4] is: dose: 100.0 mg/kg/injection, schedule: Q01DX001 (ip), vehicle: Klucel (hydroxypropylcellulose) (HPC).
Where [5] appears, read: dose: 200.0 mg/kg/injection, schedule: Q01DX001 (ip), vehicle: Klucel (hydroxypropylcellulose) (HPC).
Setting [6] is: dose: 100.0 mg/kg/injection, schedule: Q01DX001 (ip), vehicle: carboxymethylcellulose (CMC).
Where [7] appears, read: dose: 200.0 mg/kg/injection, schedule: Q01DX001 (ip), vehicle: carboxymethylcellulose (CMC).
[8] abbreviates: dose: 400.0 mg/kg/injection, schedule: Q01DX001 (ip), vehicle: carboxymethylcellulose (CMC).
[9] abbreviates: dose: 50.0 mg/kg/injection, schedule: Q01DX009 (ip), vehicle: saline with Tween-80.
Where [10] appears, read: dose: 100.0 mg/kg/injection, schedule: Q01DX001 (ip), vehicle: saline.
[11] abbreviates: dose: 200.0 mg/kg/injection, schedule: Q01DX001 (ip), vehicle: saline.
The mark [12] stands for this setting: dose: 400.0 mg/kg/injection, schedule: Q01DX001 (ip), vehicle: saline.

15 molecules from PubChem BioAssay AID248 (DTP/NCI, 2004) can be followed below.

Several values for one entry are separate records, joined by “and”; a condition that tells them apart may be missing. Equal values may be shown once. Toxic doses and inconclusive results are not listed.

For `Cc1cc(Cl)c(Cl)cc1NC(=O)Nc1cccc(F)c1`, the T/C under setting [1] was 94 % of control, the T/C under setting [2] is 100 % of control and the T/C under setting [3] was 94 % of control.
With `Nc1ccc2oc(=O)c(C(=O)O)cc2c1`, the T/C under setting [4] was 112 % of control and the T/C under setting [5] is 89 % of control.
Turning to `CC(=O)Oc1ccccc1C1OC(=O)c2ccccc2N1C(C)=O` (configuration not stated), the T/C was 106 % of control (dose: 100.0 mg/kg/injection, schedule: Q01DX001 (ip), vehicle: saline with Tween-80); 101 % of control and 103 % of control under setting [1]; 105 % of control and 87 % of control (dose: 100.0 mg/kg/injection, schedule: Q04DX002 (ip), vehicle: saline with Tween-80); 104 % of control (dose: 200.0 mg/kg/injection, schedule: Q01DX001 (ip), vehicle: saline with Tween-80); 93 % of control and 102 % of control under setting [2]; 96 % of control and 97 % of control (dose: 200.0 mg/kg/injection, schedule: Q04DX002 (ip), vehicle: saline with Tween-80). Further, the T/C is, setting by setting: (dose: 400.0 mg/kg/injection, schedule: Q01DX001 (ip), vehicle: saline with Tween-80) 103 % of control; under setting [3], 93 % of control; (dose: 400.0 mg/kg/injection, schedule: Q04DX002 (ip), vehicle: saline with Tween-80) 94 % of control and 105 % of control.
`O=[N+]([O-])c1ccc2c(c1)Cc1cc(O)c(I)cc1-2`: the T/C reads like this: under setting [6], 101 % of control; under setting [7], 101 % of control; under setting [8], 97 % of control.
For `CN(C)/N=C(\CBr)c1ccc(Br)cc1`, the T/C runs as follows: under setting [9], 96 % of control; under setting [1], 107 % of control; under setting [2], 89 % of control.
For `OC1(c2cccc3ccccc23)CCCCC1`, the T/C is 100 % of control under setting [9]; 94 % of control under setting [1]; 94 % of control (dose: 100.0 mg/kg/injection, schedule: Q04DX003 (ip), vehicle: saline with Tween-80); 103 % of control under setting [2]; 91 % of control (dose: 200.0 mg/kg/injection, schedule: Q04DX003 (ip), vehicle: saline with Tween-80).
With `Cc1ccc2ccc(-c3ccccc3)nc2c1`, the T/C runs as follows: under setting [10], 96 % of control; (dose: 100.0 mg/kg/injection, schedule: Q01DX009 (ip), vehicle: saline) 93 % of control; under setting [11], 105 % of control; (dose: 200.0 mg/kg/injection, schedule: Q01DX009 (ip), vehicle: saline) 90 % of control; under setting [12], 109 % of control; (dose: 400.0 mg/kg/injection, schedule: Q01DX009 (ip), vehicle: saline) 92 % of control.
For `CNCCc1cc2c(c(OC)c1/C=C/C(=O)/C=C/c1c(CCNC)cc3c(c1OC)OCO3)OCO2`, the T/C was 100 % of control (dose: 75.0 mg/kg/injection, schedule: Q01DX001 (ip), vehicle: carboxymethylcellulose (CMC)) and 100 % of control (dose: 150.0 mg/kg/injection, schedule: Q01DX001 (ip), vehicle: carboxymethylcellulose (CMC)).
As to `COc1ccc(NC(=O)N(C)Cc2ccccc2Cl)cc1`, the T/C by setting is: (dose: 100.0 mg/kg/injection, schedule: Q04DX002 (ip), vehicle: Klucel (hydroxypropylcellulose) (HPC)) 96 % of control; (dose: 200.0 mg/kg/injection, schedule: Q04DX002 (ip), vehicle: Klucel (hydroxypropylcellulose) (HPC)) 110 % of control; (dose: 400.0 mg/kg/injection, schedule: Q04DX002 (ip), vehicle: Klucel (hydroxypropylcellulose) (HPC)) 104 % of control.
With `Cc1cc(=O)c2cc(C(=O)c3ccccc3)ccc2[nH]1`, the T/C is 101 % of control under setting [10], 98 % of control under setting [11] and 107 % of control under setting [12].
In the case of `CCC/C=[CH]/[Hg][Cl]`, the T/C was 93 % of control (dose: 6.25 mg/kg/injection, schedule: Q01DX009 (ip), vehicle: other); 95 % of control (dose: 6.25 mg/kg/injection, schedule: Q04DX003 (ip), vehicle: saline sonified); 94 % of control (dose: 12.5 mg/kg/injection, schedule: Q01DX009 (ip), vehicle: other); 95 % of control (dose: 12.5 mg/kg/injection, schedule: Q04DX003 (ip), vehicle: saline sonified); 97 % of control (dose: 25.0 mg/kg/injection, schedule: Q01DX009 (ip), vehicle: other); 106 % of control (dose: 25.0 mg/kg/injection, schedule: Q04DX003 (ip), vehicle: saline sonified).
For the molecule `FC(F)(F)c1cc(CN(CCCl)CCCl)cc(C(F)(F)F)c1`, the T/C is, setting by setting: (dose: 2.4 mg/kg/injection, schedule: Q01DX009 (ip), vehicle: saline) 97 % of control; (dose: 3.6 mg/kg/injection, schedule: Q01DX009 (ip), vehicle: saline) 98 % of control; (dose: 8.2 mg/kg/injection, schedule: Q01DX009 (ip), vehicle: saline) 108 % of control; (dose: 42.0 mg/kg/injection, schedule: Q01DX009 (ip), vehicle: other) 97 % of control; (dose: 42.0 mg/kg/injection, schedule: Q01DX015 (ip), vehicle: carboxymethylcellulose (CMC)) 104 % of control; (dose: 50.0 mg/kg/injection, schedule: Q01DX001 (ip), vehicle: carboxymethylcellulose (CMC)) 111 % of control. In addition, the T/C (dose: 72.0 mg/kg/injection, schedule: Q01DX009 (ip), vehicle: other) was 98 % of control; the T/C (dose: 72.0 mg/kg/injection, schedule: Q01DX015 (ip), vehicle: carboxymethylcellulose (CMC)) was 116 % of control; the T/C under setting [6] is 108 % of control; the T/C (dose: 120.0 mg/kg/injection, schedule: Q01DX015 (ip), vehicle: carboxymethylcellulose (CMC)) is 116 % of control; the T/C (dose: 176.0 mg/kg/injection, schedule: Q01DX001 (ip), vehicle: other) was 100 % of control; the T/C (dose: 178.0 mg/kg/injection, schedule: Q01DX001 (ip), vehicle: saline) was 103 % of control. Further, the T/C reads like this: (dose: 178.0 mg/kg/injection, schedule: Q04DX003 (ip), vehicle: other) 86 % of control; under setting [7], 111 % of control; (dose: 264.0 mg/kg/injection, schedule: Q01DX001 (ip), vehicle: other) 107 % of control; (dose: 267.0 mg/kg/injection, schedule: Q01DX001 (ip), vehicle: saline) 116 % of control; (dose: 400.0 mg/kg/injection, schedule: Q01DX001 (ip), vehicle: other) 105 % of control; under setting [12], 121 % of control. Further, the T/C (dose: 600.0 mg/kg/injection, schedule: Q01DX001 (ip), vehicle: saline) was 152 % of control.
`CN(C)c1ccc2c(c1)N=Nc1cc(N(C)C)ccc1C2`: the T/C under setting [4] is 87 % of control; the T/C under setting [5] was 91 % of control; the T/C (dose: 400.0 mg/kg/injection, schedule: Q01DX001 (ip), vehicle: Klucel (hydroxypropylcellulose) (HPC)) is 87 % of control.
With `Cc1cccc(NC(=S)N(C)C)c1`, the T/C was 99 % of control under setting [1], 101 % of control under setting [2] and 94 % of control under setting [3].
With `CCOC(=O)c1cc(OCC)c2c(ccc3ccccc32)n1`, the T/C is 97 % of control under setting [6]; 95 % of control and 103 % of control (dose: 100.0 mg/kg/injection, schedule: Q01DX009 (ip), vehicle: carboxymethylcellulose (CMC)); 102 % of control and 105 % of control (dose: 100.0 mg/kg/injection, schedule: Q04DX002 (ip), vehicle: carboxymethylcellulose (CMC)); 103 % of control (dose: 100.0 mg/kg/injection, schedule: Q04DX003 (ip), vehicle: carboxymethylcellulose (CMC)); 112 % of control under setting [7]; 98 % of control and 106 % of control (dose: 200.0 mg/kg/injection, schedule: Q01DX009 (ip), vehicle: carboxymethylcellulose (CMC)). In addition, the T/C is 97 % of control and 102 % of control (dose: 200.0 mg/kg/injection, schedule: Q04DX002 (ip), vehicle: carboxymethylcellulose (CMC)); 97 % of control (dose: 200.0 mg/kg/injection, schedule: Q04DX003 (ip), vehicle: carboxymethylcellulose (CMC)); 100 % of control under setting [8]; 98 % of control and 101 % of control (dose: 400.0 mg/kg/injection, schedule: Q01DX009 (ip), vehicle: carboxymethylcellulose (CMC)); 96 % of control and 97 % of control (dose: 400.0 mg/kg/injection, schedule: Q04DX002 (ip), vehicle: carboxymethylcellulose (CMC)); 102 % of control (dose: 400.0 mg/kg/injection, schedule: Q04DX003 (ip), vehicle: carboxymethylcellulose (CMC)).
